Measurements: patent EP4375289A1, “PEPTIDE WITH ANTIMICROBIAL ACTIVITY” (Freie Universität Berlin, priority 2022, dated 2024)
Square brackets hold non-standard residues; d marks the D form. Peptide text beside a SMILES is read from it. 2Abz = Nc1ccccc1C(=O)O; Abu = CC[C@H](N)C(=O)O

Tests used:
[1] = Peptide-induced membrane disrupting activity; format: biochemical; conditions: artificial phospholipid membranes at physiological pH
Protocol: Peptide-induced membrane disrupting activity was determined before by calculation of EC50 values and an increase in bioactivity with a growing degree of side chain fluorination was found.

red blood cells = format: cell-based; conditions: data not shown
Protocol: Hemolysis assays were performed on red blood cells and cytotoxicity tests with two cell lines (HeLa, A549). No potent hemolytic activity for all peptides up to a concentration of 250 µg/mL, corresponding to concentrations of 140 µM (AbuR14) - 125 µM (TfeGlyR14) was determined (data not shown).

E. coli = test: Minimum inhibitory concentration (MIC) assay, CLSI broth dilution; format: cell-based; conditions: E. coli ATCC 25922
Protocol: (§1) Minimum inhibitory concentrations (MIC) assays were performed according to Clinical and Laboratory Standards Institute (CLSI) recommendations in cation-adjusted Mueller-Hinton broth (Mueller-Hinton II) broth in flat-bottomed, 96-well plates (Corning, Wiesbaden, Germany) with an inoculum of 10^5 bacteria/well and incubated at 37°C overnight. The optical density of the cultures was determined at 460 and 600 nm immediately after inoculation and after overnight incubation using a BioTek Synergy HT plate reader. Controls included bacterial strains, medium alone and wells without peptide additions. A serial dilution of each peptide was done before bacteria addition. A serial dilution of media including the respective peptide solvent without peptides supplement (Dimethylsulfoxid; Sigma-Aldrich, Taufkirchen, Germany or 1 x phosphate buffered saline; Biochrom, Berlin, Germany) functions as control to ensure the solvent influence on growth.

E. faecalis = test: as above; format: cell-based; conditions: E. faecalis ATCC 29212
Protocol: as §1

K. pneumoniae = test: as above; format: cell-based; conditions: K. pneumoniae ATCC 700603
Protocol: as §1

P. aeruginosa = test: as above; format: cell-based; conditions: P. aeruginosa ATCC 27853
Protocol: as §1

S. Typhimurium = test: as above; format: cell-based; conditions: S. Typhimurium ATCC 14028
Protocol: as §1

S. aureus = test: as above; format: cell-based; conditions: S. aureus ATCC 29213
Protocol: as §1

C. albicans = test: as above; format: cell-based; conditions: C. albicans IMT 9655

Row | Compound | EC50 [1] [µM] | peptide-induced hemolysis at minimum concentrations (red blood cells; red blood cells) [mg/mL] | 1*MIC (E. coli) [µg/mL] | 1*MIC (E. faecalis) [µg/mL] | 1*MIC (K. pneumoniae) [µg/mL] | 1*MIC (P. aeruginosa) [µg/mL] | 1*MIC (S. Typhimurium) [µg/mL] | 1*MIC (S. aureus) [µg/mL] | 1*MIC (C. albicans) [µg/mL] | No potent hemolytic activity up to a concentration (corresponding concentration) (red blood cells; corresponding to 250 µg/mL) [µM]
1 | CC(C)C[C@@H](NC(=O)[C@H](CCCNC(=N)N)NC(=O)[C@H](Cc1c[nH]c2ccccc12)NC(=O)[C@H](CCCNC(=N)N)NC(=O)[C@@H](NC(=O)[C@@H](N)CCCNC(=N)N)C(C)C)C(=O)N[C@H](Cc1ccccc1)C(=O)Nc1ccccc1C(=O)N[C@H](C)C(=O)N[C@@H](CCCNC(=N)N)C(=O)N[C@@H](Cc1c[nH]c2ccccc12)C(=O)N[C@@H](CCCNC(=N)N)C(=O)N[C@H](C(=O)N[C@@H](CCCNC(=N)N)C(=O)O)C(C)C [SAJO-2, H-R-Val-R-Trp-R-[I-f-[2]Abz-a]-R-Trp-R-Val-R-OH, reference compound] (H-RVRWR[dL][dF][2Abz][dA]RWRVR-OH; N-terminus and C-terminus assumed) | 70 | ≥ 0.5 | – | – | – | – | – | – | – | –
2 | CC[C@H](NC(=O)[C@H](CCCNC(=N)N)NC(=O)[C@H](CC)NC(=O)[C@H](CCCNC(=N)N)NC(=O)[C@@H](C)NC(=O)c1ccccc1NC(=O)[C@@H](Cc1ccccc1)NC(=O)[C@@H](CC(C)C)NC(=O)[C@H](CCCNC(=N)N)NC(=O)[C@H](CC)NC(=O)[C@H](CCCNC(=N)N)NC(=O)[C@H](CC)NC(=O)[C@H](CCCNC(=N)N)NC(C)=O)C(=O)N[C@@H](CCCNC(=N)N)C(N)=O [AbuR14, Ac-R-Abu-R-Abu-R-[I-f-[2]Abz-a]-R-Abu-R-Abu-R-NH2] (Ac-R[Abu]R[Abu]R[dL][dF][2Abz][dA]R[Abu]R[Abu]R-NH2) | 148 | – | 128 | 512 | ≥1024 | ≥1024 | 256 | ≥1024 | 512 | > 140
